In paper PMC9376946, “Peptide-RNA Coacervates as a Cradle for the Evolution of Folded Domains” (Journal of the American Chemical Society, 2022):
Several values for one entry are separate records, joined by “and”; a condition that tells them apart may be missing. Identical values can stand only once.

How the values were obtained:
polyU [1] = test: W-band echo intensity and echo decay of PA-12 with polyU; type: binding
Experimental: (§1) For pulse EPR measurements, 5–6 μL of peptide in D2O with 20% glycerol-d8 was introduced into a quartz capillary of 0.9 mm i.d. and 1.1 mm o.d. and sealed with Critoseal at one end. The samples with polyU (and thus, the potential for coacervates) were flash-frozen in liquid nitrogen after incubating at room temperature for 15–20 min. Samples without polyU were directly inserted into the spectrometer at 25 K.
Pulse EPR measurements were carried out at the W band (94.9 GHz) on a home-built spectrometer at 25 K.[22]−[24] Echo intensities were measured with a Hahn echo sequence (π/2νobs – τ – πνobs – τ – echo) using π/2 and π pulses of 20–25 ns and 40–50 ns, respectively, and τ = 500 ns. Echo decays were measured under the same conditions with an initial τ value of 500 ns. DEER measurements were recorded using the four-pulse DEER sequence (π/2νobs – τ1 – πνobs – (τ1 + t) – πνpump – (τ2-t) – πνobs – τ2 – echo)[25],[26] with a chirp pump pulse[23] using eight-step phase cycling and monitoring the echo intensity as a function of increasing t. […] The DEER data were analyzed using the DeerAnalysis 2018[27] program with Tikhonov regularization[28] and also verified with DEERNet.[29] […] The calculated distance distributions were obtained from mtsslSuite[30] using maleimide TEMPO (M-TEMPO) as the ligand, and 200 rotamer conformations were generated using clash treatment set to “loose”. […]

polyU [2] = test: DEER of peptides in the presence of polyU; type: binding; settings: for local concentration of detected spins: from DEER background decay, calibration curve
Experimental: as §1
Pulse EPR measurements were carried out at the W band (94.9 GHz) on a home-built spectrometer at 25 K.[22]−[24] Echo intensities were measured with a Hahn echo sequence (π/2νobs – τ – πνobs – τ – echo) using π/2 and π pulses of 20–25 ns and 40–50 ns, respectively, and τ = 500 ns. Echo decays were measured under the same conditions with an initial τ value of 500 ns. DEER measurements were recorded using the four-pulse DEER sequence (π/2νobs – τ1 – πνobs – (τ1 + t) – πνpump – (τ2-t) – πνobs – τ2 – echo)[25],[26] with a chirp pump pulse[23] using eight-step phase cycling and monitoring the echo intensity as a function of increasing t. The maximum intensity of the nitroxide spectrum was set to 94.9 GHz, the observer pulses were set to 94.85 GHz, and the π/2 and π pulse durations were 35–40 and 70–80 ns. The chirp pump pulse frequency was 94.88–94.98 GHz with a duration of 128 ns. The repetition time was 10 ms. The samples without polyU and a concentration above 50 μM were averaged for 1–5 h. All the samples with a concentration ≤50 μM and all the samples in the presence of polyU were averaged for 6–14 h. The DEER data were analyzed using the DeerAnalysis 2018[27] program with Tikhonov regularization[28] and also verified with DEERNet.[29] For DeerAnalysis, the background was fitted with a homogenous three-dimensional distribution. The calculated distance distributions were obtained from mtsslSuite[30] using maleimide TEMPO (M-TEMPO) as the ligand, and 200 rotamer conformations were generated using clash treatment set to “loose”.
We carried out DEER measurements on the series of samples with 150 μM PA-12 and varying amounts of polyU (Figure 5A). DEER traces were analyzed in terms of several parameters: (i) the modulation depth, Δ, which gives information about the amount of dimers present; (ii) the slope of the background decay, which gives information on the average local concentration of the observed spins;[36],[40] and (iii) the SNR, which indicates how many spins were observed. […] The decrease in the background decay slope and SNR are consistent with the observed reduction in echo intensity (Figure 4A). We therefore conclude that the observed DEER modulation arose from the unbound PA-12 dimers, whereas the polyU-bound PA-12 could not be detected, as discussed in the description of the echo decays. As the polyU concentration increases, the PA-12 concentration in the dispersed phase decreases and therefore the dimer population decreases as well (eq 1), ultimately resulting in the disappearance of the modulation at about 0.5 mg/mL polyU.
We summarized our experimental observations in Figure 5B, where we plot the decrease degree (in %) in the background decay, the echo intensity, and the modulation depth as a function of polyU concentration. For all parameters, the graphs show a similar linear behavior in the high PA/polyU regime below 0.5 mg/mL polyU. […] At 0.5 mg/mL polyU, an inflection point is detected: Above 0.5 mg/mL polyU, population II reaches a plateau and we have a small gain in echo intensity and background decay, but a large gain in modulation depth. From this series of experiments, we conclude that PA bound to polyU has restricted motion and that dimers of PA exist also when bound to polyU within the coacervate. We determined the local concentration of the spins contributing to the DEER traces in the PA/polyU mixtures from a calibration curve generated from the background decay slopes of the DEER data of PA-12 in the absence of polyU (Figure S10D), and the results are given in Table 2. […]

RIRRASVEELTCVPGIGPRLARRILERLA [PA-12, Precursor-Arg peptide in which position 12 has been modified with a cysteine and attached to an M-TEMPO spin label]
echo signal remaining (polyU [1]; 150 μM PA-12, 0.5 mg/mL polyU (plateau), relative to no polyU): 8% | fast-decaying echo component (polyU [1]; 1 mg/mL polyU, 80% spin dilution, final PA 150 μM): the fast-decaying component became clearly visible | maximum modulation depth corrected for free PA (polyU [2]; 30 μM PA-12, 1 mg/mL polyU, corrected for 40% component I): 9.5% | DEER modulation depth (Δ) with polyU (polyU [2]; 30 μM PA-12, 1 mg/mL polyU, local concentration 25 μM): 5.7% | DEER modulation depth with polyU (in words) (polyU [2]; 100 μM PA-12, 2 mg/mL polyU): higher modulation depth than the sample with 1 mg/mL polyU | DEER modulation with polyU (in words) (polyU [2]; 150 μM PA-12, 0.5 mg/mL polyU): modulation could no longer be detected | DEER modulation depth (Δ) with polyU (polyU [2]; 150 μM PA-12, 1 mg/mL polyU): 2% | DEER modulation with polyU (in words) (polyU [2]; 150 μM PA-12, 1 mg/mL polyU): modulation reappeared again | local concentration of detected spins (polyU [2]; PA-12 30 μM / polyU 1 mg/mL): 25 µM and 25 ± 2 µM | local concentration of detected spins (polyU [2]; PA-12 100 μM / polyU 1 mg/mL): 48 ± 4.5 µM | local concentration of detected spins (polyU [2]; PA-12 100 μM / polyU 2 mg/mL): 53 ± 5 µM | local concentration of detected spins (polyU [2]; PA-12 150 μM / polyU 0.1 mg/mL): 91 ± 8 µM | local concentration of detected spins (polyU [2]; PA-12 150 μM / polyU 0.2 mg/mL): 75 ± 7 µM | local concentration of detected spins (polyU [2]; PA-12 150 μM / polyU 0.35 mg/mL): 45 ± 4 µM | local concentration of detected spins (polyU [2]; PA-12 150 μM / polyU 0.5 mg/mL): 2.3 µM and 2.3 ± 2 µM | local concentration of detected spins (polyU [2]; PA-12 150 μM / polyU 1 mg/mL): 23 µM and 23 ± 2 µM
